Measurements published in patent US7071190B2, “Inhibitors to tubulin polymerization” (Rigel Pharmaceuticals, Inc., priority 2002, dated 2006).

System: A549 cells
Assay: Bromodeoxyuridine (BrdU) proliferation assay
Format: cell-based, human
Conditions: BrdU ELISA 48 hours after addition of compound; tested 0.03-10 uM; cell line not given (A549 method; SW-480 and MDA-MB-231 also used); read-out: Assay Result (IC50μM)
Protocol: In order to determine the antiproliferative activity of microtubule inhibitors, A549 cells were plated in 96 well plates at 2000 cells/well 24 hours prior to the addition of a compound of the invention in 80 ul growth media (F12K, 10% FBS, Pen/Strep). Prior to addition to cells, compounds were solubilized in 100% DMSO to 5 mM and serially diluted in 6 semi-log steps in 100% DMSO. The diluted compounds were added to cells by two 15.8-fold dilution steps, the first being a dilution into a 23% ethanol/H2O mixture and the second being a dilution into growth media. Finally, these dilutions were followed by a 1:1 dilution onto cells. The resulting final solvent concentration was 0.2% DMSO/0.75% ethanol. Compounds were tested at final concentrations of 10, 3, 1, 0.3, 0.1 and 0.03 uM. Forty-eight hours after the addition of compound, the effects on cellular proliferation were measured using a cell proliferation BrdU ELISA (Roche Molecular Biochemicals, Cat.#1 669 915).

IC50	Structure (SMILES)
26.7 µM	COc1ccc(NC(=S)NNc2ncnc3cc(-c4ccccc4)sc23)c(OC)c1 [Compound 14]
0.38 µM	COc1ccc(NC(=S)NNc2ncnc3cc(-c4ccccc4)sc23)c(OC)c1 [Compound 13]
2.2 µM	CCOC(=O)c1ccccc1NC(=S)NNc1ncnc2cc(-c3ccccc3)sc12 [Compound 11]
0.39 µM	S=C(NNc1ncnc2cc(-c3ccccc3)sc12)Nc1ccccc1 [Compound 2]

Same assay, conditions: Homo sapiens, A549, 48 h, BrdU ELISA 48 hours after addition of compound; tested 0.03-10 uM; cell line not given (A549 method; SW-480 and MDA-MB-231 also used); read-out: Assay Result (IC50μM)

IC50	Structure (SMILES)
2.79 µM	S=C(NNc1ncnc2cc(-c3cccc(Cl)c3)sc12)Nc1ccccc1 [Compound 35]
0.369 µM	Cc1ccc(-c2cc3ncnc(NNC(=S)Nc4ccccc4)c3s2)cc1 [Compound 31]
0.622 µM	Cc1ccc(-c2cc3ncnc(NNC(=S)Nc4ccccc4)c3s2)cc1C [Compound 51]
0.927 µM	Cc1cc(C)cc(-c2cc3ncnc(NNC(=S)Nc4ccccc4)c3s2)c1 [Compound 50]
1.61 µM	CNC(=S)NNc1ncnc2cc(-c3ccccc3)sc12 [Compound 70]
0.155 µM	COc1ccc(-c2cc3ncnc(NNC(=S)Nc4ccccc4)c3s2)cc1 [Compound 33]
6.44 µM	S=C(NNc1ncnc2cc(-c3ccccc3)sc12)Nc1cccnc1 [Compound 25]
0.329 µM	COc1ccccc1NC(=S)NNc1ncnc2cc(-c3ccccc3)sc12 [Compound 6]
0.49 µM	COc1cccc(NC(=S)NNc2ncnc3cc(-c4ccccc4)sc23)c1 [Compound 5]
0.998 µM	COc1ccc(OC)c(NC(=S)NNc2ncnc3cc(-c4ccccc4)sc23)c1 [Compound 16]
0.904 µM	FC(F)(F)c1ccccc1NC(=S)NNc1ncnc2cc(-c3ccccc3)sc12 [Compound 4]

More lines, now with the values behind:

Structure (SMILES)	IC50
COCCCNC(=S)NNc1ncnc2cc(-c3cc(C)cc(C)c3)sc12 [Compound 101]	0.029 µM
COCCNC(=S)NNc1ncnc2cc(-c3cccc(C(F)(F)F)c3)sc12 [Compound 91]	2.2 µM
S=C(NCc1ccccc1)NNc1ncnc2cc(-c3ccccc3)sc12 [Compound 57]	0.23 µM
COCCCNC(=S)NNc1ncnc2cc(-c3ccccc3)sc12 [Compound 74]	0.054 µM
Cc1ccc(-c2cc3ncnc(NNC(=S)NC4CC4)c3s2)cc1C [Compound 55]	0.15 µM
COCCNC(=S)NNc1ncnc2cc(-c3ccc(C)cc3)sc12 [Compound 87]	0.166 µM
CCNC(=S)NNc1ncnc2cc(-c3cccc(C)c3)sc12 [Compound 84]	0.113 µM
Cc1cccc(-c2cc3ncnc(NNC(=S)N[C@@H]4CCC[C@H]4OCc4ccccc4)c3s2)c1 [Compound 47]	7.16 µM
COC(=O)CCNC(=S)NNc1ncnc2cc(-c3ccccc3)sc12 [Compound 76]	0.187 µM
CCCNC(=S)NNc1ncnc2cc(-c3cccc(C)c3)sc12 [Compound 85]	0.044 µM
COCCCNC(=S)NNc1ncnc2cc(-c3cccc(C)c3)sc12 [Compound 89]	0.028 µM
Cc1cc(C)cc(-c2cc3ncnc(NNC(=S)NC(C)C)c3s2)c1 [Compound 99]	0.086 µM
Cc1cccc(-c2cc3ncnc(NNC(=S)NCC4CCCO4)c3s2)c1 (centres unmarked) [Compound 79]	0.719 µM
Cc1cccc(-c2cc3ncnc(NNC(=S)NCc4ccco4)c3s2)c1 [Compound 83]	0.127 µM
OCCCCNC(=S)NNc1ncnc2cc(-c3ccccc3)sc12 [Compound 28]	6.31 µM
COCCNC(=S)NNc1ncnc2cc(-c3ccc4c(c3)OCO4)sc12 [Compound 102]	0.385 µM
Cc1ccc(-c2cc3ncnc(NNC(=S)NC4CC4)c3s2)cc1 [Compound 38]	0.121 µM
S=C(NNc1ncnc2cc(-c3ccc(Cl)cc3)sc12)Nc1ccccc1 [Compound 34]	1.5 µM
Cc1ccc(-c2cc3ncnc(NNC(N)=S)c3s2)cc1 [Compound 30]	1.97 µM
S=C(NCCN1CCCCC1)NNc1ncnc2cc(-c3ccccc3)sc12 [Compound 67]	18.6 µM
Cc1cc(C)cc(-c2cc3ncnc(NNC(=S)NCC4CCCO4)c3s2)c1 (centres unmarked) [Compound 98]	0.025 µM
S=C(NNc1ncnc2cc(-c3ccccc3)sc12)NC1CCCC1 [Compound 20]	0.071 µM
S=C(NNc1ncnc2cc(-c3ccccc3)sc12)N[C@@H]1CCC[C@H]1OCc1ccccc1 [Compound 22]	5.57 µM
Cc1cccc(-c2cc3ncnc(NNC(=S)NC[C@@H]4CCCO4)c3s2)c1 [Compound 80]	0.151 µM
S=C(NC[C@@H]1CCCO1)NNc1ncnc2cc(-c3ccccc3)sc12 [Compound 65]	0.134 µM

Same assay, conditions: antiproliferative activity

Structure (SMILES)	Activity ranking: most active compounds of the invention	Activity ranking: particularly active examples of the compounds of the invention
COCCCNC(=S)NNc1ncnc2cc(-c3cc(C)cc(C)c3)sc12 [Compound 101]	most active	particularly active
COCCNC(=S)NNc1ncnc2cc(-c3cccc(C(F)(F)F)c3)sc12 [Compound 91]	–	particularly active
S=C(NCc1ccccc1)NNc1ncnc2cc(-c3ccccc3)sc12 [Compound 57]	most active	particularly active
COCCCNC(=S)NNc1ncnc2cc(-c3ccccc3)sc12 [Compound 74]	most active	particularly active
Cc1ccc(-c2cc3ncnc(NNC(=S)NC4CC4)c3s2)cc1C [Compound 55]	most active	particularly active
S=C(NNc1ncnc2cc(-c3cccc(Cl)c3)sc12)Nc1ccccc1 [Compound 35]	–	particularly active
COc1ccc(NC(=S)NNc2ncnc3cc(-c4ccccc4)sc23)c(OC)c1 [Compound 13]	most active	particularly active
COc1cccc(-c2cc3ncnc(NNC(=S)NCC4CCCO4)c3s2)c1 (centres unmarked) [Compound 81]	–	particularly active
COCCNC(=S)NNc1ncnc2cc(-c3ccc(C)cc3)sc12 [Compound 87]	most active	particularly active
CCNC(=S)NNc1ncnc2cc(-c3cccc(C)c3)sc12 [Compound 84]	most active	particularly active
Cc1cccc(-c2cc3ncnc(NNC(=S)N[C@@H]4CCC[C@H]4OCc4ccccc4)c3s2)c1 [Compound 47]	–	particularly active
COC(=O)CCNC(=S)NNc1ncnc2cc(-c3ccccc3)sc12 [Compound 76]	most active	particularly active
CCCNC(=S)NNc1ncnc2cc(-c3cccc(C)c3)sc12 [Compound 85]	most active	particularly active
COCCCNC(=S)NNc1ncnc2cc(-c3cccc(C)c3)sc12 [Compound 89]	most active	particularly active
Cc1ccc(-c2cc3ncnc(NNC(=S)Nc4ccccc4)c3s2)cc1 [Compound 31]	most active	particularly active
Cc1cc(C)cc(-c2cc3ncnc(NNC(=S)NC(C)C)c3s2)c1 [Compound 99]	most active	particularly active
Cc1cccc(-c2cc3ncnc(NNC(=S)NCC4CCCO4)c3s2)c1 (centres unmarked) [Compound 79]	most active	particularly active
Cc1ccc(-c2cc3ncnc(NNC(=S)Nc4ccccc4)c3s2)cc1C [Compound 51]	most active	particularly active
Cc1cccc(-c2cc3ncnc(NNC(=S)NCc4ccco4)c3s2)c1 [Compound 83]	most active	particularly active
CCOC(=O)c1ccccc1NC(=S)NNc1ncnc2cc(-c3ccccc3)sc12 [Compound 11]	–	particularly active
S=C(NNc1ncnc2cc(-c3ccc4c(c3)OCO4)sc12)NC1CC1 [Compound 56]	–	particularly active

Structure (SMILES)	Activity ranking: most active compounds of the invention	Activity ranking: particularly active examples of the compounds of the invention
OCCCCNC(=S)NNc1ncnc2cc(-c3ccccc3)sc12 [Compound 28]	–	particularly active
COCCNC(=S)NNc1ncnc2cc(-c3ccc4c(c3)OCO4)sc12 [Compound 102]	most active	particularly active
Cc1cc(C)cc(-c2cc3ncnc(NNC(=S)Nc4ccccc4)c3s2)c1 [Compound 50]	most active	particularly active
Cc1ccc(-c2cc3ncnc(NNC(=S)NC4CC4)c3s2)cc1 [Compound 38]	most active	particularly active
CNC(=S)NNc1ncnc2cc(-c3ccccc3)sc12 [Compound 70]	–	particularly active
COc1ccc(-c2cc3ncnc(NNC(=S)Nc4ccccc4)c3s2)cc1 [Compound 33]	most active	particularly active
S=C(NNc1ncnc2cc(-c3ccccc3)sc12)Nc1cccnc1 [Compound 25]	–	particularly active
S=C(NNc1ncnc2cc(-c3ccc(Cl)cc3)sc12)Nc1ccccc1 [Compound 34]	–	particularly active
Cc1ccc(-c2cc3ncnc(NNC(N)=S)c3s2)cc1 [Compound 30]	–	particularly active
S=C(NCCN1CCCCC1)NNc1ncnc2cc(-c3ccccc3)sc12 [Compound 67]	–	particularly active
Cc1cc(C)cc(-c2cc3ncnc(NNC(=S)NCC4CCCO4)c3s2)c1 (centres unmarked) [Compound 98]	most active	particularly active
S=C(NNc1ncnc2cc(-c3ccccc3)sc12)NC1CCCC1 [Compound 20]	most active	particularly active
COc1ccccc1NC(=S)NNc1ncnc2cc(-c3ccccc3)sc12 [Compound 6]	most active	particularly active
COc1cccc(NC(=S)NNc2ncnc3cc(-c4ccccc4)sc23)c1 [Compound 5]	most active	particularly active
COc1ccc(OC)c(NC(=S)NNc2ncnc3cc(-c4ccccc4)sc23)c1 [Compound 16]	most active	particularly active
S=C(NNc1ncnc2cc(-c3ccccc3)sc12)N[C@@H]1CCC[C@H]1OCc1ccccc1 [Compound 22]	–	particularly active
S=C(NNc1ncnc2cc(-c3ccccc3)sc12)Nc1ccccc1 [Compound 2]	most active	particularly active
FC(F)(F)c1ccccc1NC(=S)NNc1ncnc2cc(-c3ccccc3)sc12 [Compound 4]	most active	particularly active
Cc1cccc(-c2cc3ncnc(NNC(=S)NCC(O)CO)c3s2)c1 (centres unmarked) [Compound 49]	–	particularly active
Cc1cccc(-c2cc3ncnc(NNC(=S)NC[C@@H]4CCCO4)c3s2)c1 [Compound 80]	most active	particularly active
S=C(NC[C@@H]1CCCO1)NNc1ncnc2cc(-c3ccccc3)sc12 [Compound 65]	most active	particularly active
